Reference: publication PMC9573699, “Deactivatable Bisubstrate Inhibitors of Protein Kinases” (Molecules, 2022)
Where two headings read alike, the source gives them in different places. Non-standard residues stand in square brackets, D forms with d. Residues, ends and D or L forms follow the SMILES beside them. *: point of attachment. X2 = O=C(CCCCCCCC(=O)*)N1CCN(c2ncnc3[nH]ccc23)CC1

Key:
PKAcα [1] = conditions: cited from earlier work
PKAcα [2] = biological target: T1, PKAcα (Homo sapiens, UniProt P17612)
Source text: (§1) In the present work, photoluminescence-based competitive equilibrium binding assay was used to establish the KD and KD^app values of the novel compounds as determined before and after fragmentation, respectively. […] Two assay formats were used, which were designed for the determination of KD values of high-affinity bivalent inhibitors and the mixtures of their low-affinity fragments, respectively.
The first assay was based on the measurement of the time-gated photoluminescence signal intensity (TGLI) and it utilized ARC-Lum(Fluo) probes ARC-1063 or ARC-1182, which both emit long life-time photoluminescence signal when associated with a target PK [38]. ARC-1063 and ARC-1182 differ by the fluorescent label (Figure S7) and the choice between these probes was only based on the availability of the particular probe. […]
The displacement data were fitted to the previously described [40, 42] exact model of competitive binding (further explained in Appendix A) to determine KD and KD^app values, which were used as concentration- and probe-independent quantities to evaluate the deactivation efficiencies of the novel compounds.
The fluorescence intensity (FI), fluorescence anisotropy (FA), and time gated photoluminescence intensity (TGLI) measurements were performed with a PHERAstar (BMG Labtech) microplate reader. […] The TGLI was recorded for 200 µs after 60 µs delay from the flash-excitation. […]

PKAcα [3] = biological target: T1, PKAcα; experiment: FA-based competitive binding/displacement assay (probe ARC-583); conditions: for influence of TCEP on the displacement curve: FA assay, TCEP 1 mM
Source text: as §1
A typical assay setup based on the measurement of FA utilizes concentrations of the fluorescence probes slightly below the concentration of the target protein but higher than the KD^* to achieve maximal Δr. The assay in the present work was conducted at 2 nM ARC-583 and 3 nM PKAcα. […] Thus, the KD values for low-affinity compounds can be reliably established with this FA-based assay format.
The fluorescence intensity (FI), fluorescence anisotropy (FA), and time gated photoluminescence intensity (TGLI) measurements were performed with a PHERAstar (BMG Labtech) microplate reader. The FI and FA measurements of the photoluminescent probe ARC-583 were performed with FP optical module [EX 540(50) nm, EM 590(50) nm]. The detector was adjusted with solution of the free probe ARC-583 (in the absence of PKAcα). […] The TGLI measurements of photoluminescent probes ARC-1182 and ARC-1063 were performed with HTRF optical module (EX 330(50) nm, EM 675(50) nm). The TGLI was recorded for 200 µs after 60 µs delay from the flash-excitation.
Upon arrival, the stock solution of PKAcα was divided into batches and stored at −80 °C. After removal from a freezer at −80 °C, the batches of PKAcα were stored at 0 °C in an ice box until consumed, to avoid repetitive freeze-thaw cycles.
The microplates were incubated for 30 min at 30 °C before measurements. The measurements were repeated after 60 min to verify that the reactions had reached the equilibrium. […] Formation of the complex was observed by the change of FA and the concentration of PKAcα was calculated as previously described [40, 42]. […] First, the solutions were incubated for 30 min at 30 °C, thereafter the FA or TGLI signals were measured. Then, the stock solution of TCEP (1 µL) was added to all wells to the final concentration of 1 mM. The microplates were then incubated for an additional 30 min at 30 °C and the FA or TGLI signals were measured in the presence of TCEP. All experiments were carried out in at least two replicates (n ≥ 2) and the reported errors are the standard errors of the mean.
The anisotropy change (Δr) with respect to the anisotropy of free photoluminescent probe ARC-583 and the TGLI of the photoluminescent probes ARC-1182 and ARC-1063 were plotted as functions of log[I]T, where [I]T corresponds to the total concentration of the ‘dark’ ligand/inhibitor that competes with the probe for the binding to the catalytic subunit of PK ([I]T = [I] + [PK:I], where [I] and [PK:I] correspond to the equilibrium concentrations of unbound I and PK:I complex, respectively).

[4] = HPLC-MS analysis of the fragmentation of ARC-2121 and ARC-2194; type: physicochemical; conditions: TCEP 1 mM, pH 7.5, 30 °C
Method: At fixed time points (1, 10, 30, 60, and 120 min), 10 µL of the solution (corresponding to 1 nmol of the substrate) was injected into the RP-HPLC column.
ARC-2121 (200 µM) was dissolved in H2O:MeCN (10:1). ARC-2121 (200 µM, 20 µL) was irradiated for a fixed time (15, 30, 60, 90, and 120 s) inside a microtiter plate at room temperature (rt) using the custom-made 365 nm LED array (Figure S2). Then, 9 µL (1.7 nmol) of the solution was injected into the RP-HPLC column.

PKAcα [5] = experiment: Estimated dynamic range of enzyme activity change upon deactivation (Equations 2, 3); conditions: estimated from change of KD app / IC50 upon deactivation
Source text: In general, deactivation of an inhibitor can be observed by a shift of a dose-response curve in a biochemical assay, which is caused by the increase of IC50 value from IC50^ON (the IC50 of the active inhibitor) to IC50^OFF (the IC50 of the deactivated inhibitor). The fraction of the active enzyme before and after applying the trigger depends on the initial concentration of the deactivatable inhibitor. If the sigmoidal dose–response model describes the concentration dependencies of the inhibition before and after applying the stimulus, the biggest change of the fraction of the active enzyme in the solution is observed at the concentration of the inhibitor Iopt whose logarithm is the average of the corresponding logIC50 values (Equation (2)):(2) logIopt=1/2logIC50ON+logIC50OFF
The ratio of fractions of active enzyme after (a^maxopt) and before (a^minopt) deactivation of the inhibitor (i.e., the on/off ratio of the activity of the enzyme) is determined by the square root of the ratio of the corresponding IC50 values (Equation (3)):(3) aoptmax/aoptmin=IC50OFF/IC50ON^1/2
Thus, the larger the difference between IC50^ON and IC50^OFF values is (ΔIC50), the higher the dynamic range of activity change (Δaopt = a^maxopt − a^minopt) of the enzyme is. […]

PKAcα [6] = tested on: PKAcα; set-up: method as in PMID 17125267; conditions: cited from earlier work

In the case of `N=C(N)NCCC[C@@H](NC(=O)CCCCCCCC(=O)N1CCN(c2ncnc3[nH]ccc23)CC1)C(=O)N[C@H](CCCNC(=N)N)C(=O)N[C@H](CCCNC(=N)N)C(=O)N[C@H](CCCNC(=N)N)C(=O)N[C@H](CCCNC(=N)N)C(=O)N[C@H](CCCNC(=N)N)C(=O)N[C@H](CCCCN)C(N)=O` [ARC-1411] (X2-[dR][dR][dR][dR][dR][dR][dK]-NH2), the Kd (PKAcα [1]; previously measured affinity) is listed as 0.003 nM, the Kd (PKAcα [2]) is listed as 0.003 ± 0.001 nM and the “influence of TCEP on the displacement curve” value (“influence of TCEP” for short) (PKAcα [3]) is listed as “not influenced”.

For `O=S(=O)(NCCNC/C=C/c1ccc(Br)cc1)c1cccc2cnccc12` [Compound H-89], the Kd (PKAcα [1]; H-89:PKAcα complex) is given as 9 nM and the “influence of TCEP” value (PKAcα [3]) is given as “not influenced”.

Work on `NC(=O)CCCCCCCC(=O)N1CCN(c2ncnc3[nH]ccc23)CC1` [Compound 11a, 7DP-Pip-Nda-amide] yielded a Kd (PKAcα [3]) of 460 ± 210 nM.

In the case of `O=C(OCCS)N1CCN(c2ncnc3[nH]ccc23)CC1` [Compound 1a], the “fraction converted to 2a” value ([4]; after 2 h) is reported as “more than 50%”.

In the case of `c1nc(N2CCNCC2)c2cc[nH]c2n1` [Compound 2a, 4-(piperazin-1-yl)-7H-pyrrolo [2,3-d]pyrimidine], the Kd (PKAcα [3]) is reported as 550 ± 150 nM and the “influence of TCEP” value (PKAcα [3]) is reported as “not influenced”.

In the case of `N=C(N)NCCC[C@@H](NC(=O)[C@@H](CCCNC(=N)N)NC(=O)[C@@H](CCCNC(=N)N)NC(=O)[C@@H](CCCNC(=N)N)NC(=O)[C@@H](CCCNC(=N)N)NC(=O)[C@@H](CCCNC(=N)N)NC(=O)OCCSSCCOC(=O)N1CCN(c2ncnc3[nH]ccc23)CC1)C(N)=O` [ARC-2194], the “Δaopt (dynamic range of activity change of the enzyme)” value (PKAcα [5]) is reported as 98% and the “time to quantitative conversion of parent compound to 1a” value ([4]; 100 µM) is reported as “less than 1 min”.

In the case of hexa-D-arginine, the inhibitory potency (PKAcα [6]) is listed as “millimolar”.
